Measurements as given in PMC7413254 (Nature Communications, 2020).
“And” between values parts separate entries of the source, which are not always exact repeats. Equal entries are not always repeated.

How the values were obtained:
non-expressing oocytes [1] = experiment: cells; format: cell-based, Xenopus laevis
Source text: (§1) The orientation of PfCRT in the parasite’s DV membrane, and also in the oocyte plasma membrane, is such that its N- and C-termini extend into the cytosol. The oocytes were suspended in a reaction buffer adjusted to pH 5.5 to mimic the pH of the DV lumen[1],[2]. In this scenario, the transport of a substrate via PfCRT from the acidic extracellular solution into the oocyte cytosol[15] is analogous to the parasite’s PfCRT-mediated efflux of a substrate from the acidic DV and into the cytosol. Unless specified otherwise, this is the direction in which substrate transport was measured in the oocyte assays.
(§2) Unless specified otherwise, the transport assays were conducted over 1.5 h at 27.5 °C and the reaction buffer was ND96 (96 mM NaCl, 2 mM KCl, 1 mM MgCl2, 1.8 mM CaCl2, 10 mM MES and 10 mM Tris-base) at pH 5.5.
(§3) Ten oocytes were washed twice with the relevant ND96 buffer. […] The assay was terminated by removing the reaction buffer and washing the oocytes with ice-cold ND96 buffer. The oocytes were lysed in 10% (w/v) sodium dodecyl sulfate (SDS) and the radioactivity accumulated within each oocyte was measured with a MicroBeta^2 microplate liquid scintillation analyser (PerkinElmer).
(§4) At least four independent experiments were performed (on different days and using oocytes from different frogs), and within each experiment measurements were made from ten oocytes per treatment.

PfCRT^3D7 [2] = molecular target: T1, PfCRT^3D7 (Plasmodium falciparum, UniProt Q8IBZ9); experiment: cell-based; format: cell-based
T1 sequence (Q8IBZ9 59-398): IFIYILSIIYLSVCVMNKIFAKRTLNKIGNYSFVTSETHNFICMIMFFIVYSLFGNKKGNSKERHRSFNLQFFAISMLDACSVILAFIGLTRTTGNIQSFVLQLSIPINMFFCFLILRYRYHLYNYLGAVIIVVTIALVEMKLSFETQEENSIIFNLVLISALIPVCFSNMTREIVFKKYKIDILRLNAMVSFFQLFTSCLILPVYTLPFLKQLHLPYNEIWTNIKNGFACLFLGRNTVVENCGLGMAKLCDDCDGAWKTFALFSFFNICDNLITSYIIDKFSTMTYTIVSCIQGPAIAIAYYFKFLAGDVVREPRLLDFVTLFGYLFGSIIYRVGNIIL
Source text: as §1, §2, §3, §4

non-expressing oocytes [3] = format: cell-based, Xenopus laevis
Experimental: as §2
The intracellular concentrations were calculated using previous estimates of the volume of stage V–VI oocytes (~400 nL[60]). […] The oocytes were injected with VF-6 suspended in 25 nL ND96 buffer adjusted to pH 5.0, 5.5, 6.0 or 7.0, which corresponded to the injection of 2.5–250 fmol of H^+. The Na^+-dependence of the trans-stimulatory effect of VF-6 was assessed by injecting the oocytes with VF-6 suspended in ND96 buffer (pH 5.5) or a Na^+-free version of this buffer (the Na^+ was replaced with choline).
as §4

PfCRT^3D7 [4] = molecular target: T1, PfCRT^3D7; experiment: cell-based; format: cell-based; remark: listed apart in the source
Outline: (§5)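 Transport measured in Xenopus oocytes expressing the transporters, 1.5 h at 27.5 °C in ND96 pH 5.5 unless noted. For trans-stimulation, VF-6 injected in 25 nL ND96 at pH 5.0–7.0 or Na^+-free (choline) buffer; intracellular levels based on ~400 nL oocyte volume. Ten oocytes per treatment, ≥4 experiments.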

PfNT1 = molecular target: T2, PfNT1 (Plasmodium falciparum, UniProt Q8IDM6); experiment: cell-based; format: cell-based
T2 construct: expressed in transfected cells; host or cells: Xenopus laevis oocytes (stage V-VI), cRNA-injected
T2 sequence (Q8IDM6 whole entry): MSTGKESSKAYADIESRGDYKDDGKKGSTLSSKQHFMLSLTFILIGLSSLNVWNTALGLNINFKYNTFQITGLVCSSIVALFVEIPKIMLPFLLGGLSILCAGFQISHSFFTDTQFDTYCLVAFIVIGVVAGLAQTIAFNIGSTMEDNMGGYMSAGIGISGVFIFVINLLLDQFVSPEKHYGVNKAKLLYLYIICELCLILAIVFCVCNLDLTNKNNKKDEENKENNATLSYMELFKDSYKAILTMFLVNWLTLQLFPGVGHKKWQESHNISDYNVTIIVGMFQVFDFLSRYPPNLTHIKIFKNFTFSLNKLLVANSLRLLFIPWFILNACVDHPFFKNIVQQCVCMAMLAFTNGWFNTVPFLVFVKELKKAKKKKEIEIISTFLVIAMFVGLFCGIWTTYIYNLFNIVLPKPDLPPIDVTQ
Outline: as §5

Compound	Cis-inhibition data: total [3H]CQ transport, normalised to the oocyte type control (non-expressing oocytes [1])	Total [3H]CQ transport, cis-inhibition by solute (non-expressing oocytes [1])	Cis-inhibition data: total [3H]CQ transport, normalised to the oocyte type control (PfCRT^3D7 [2])	Total [3H]CQ transport, cis-inhibition by solute (PfCRT^3D7 [2])	Total [3H]CQ transport, trans-stimulation by injected solute (non-expressing oocytes [3])	Trans-stimulation data: total [3H]CQ transport, normalised to the oocyte type control (non-expressing oocytes [3])	PfCRT-mediated [3H]CQ transport, trans-stimulation by injected solute, PfCRT3D7 (PfCRT^3D7 [4])	Total [3H]CQ transport, trans-stimulation by injected solute (PfCRT^3D7 [4])	Trans-stimulation data: PfCRT-mediated [3H]CQ transport (PfCRT^3D7 [4])	Trans-stimulation data: total [3H]CQ transport, normalised to the oocyte type control (PfCRT^3D7 [4])	Total [3H]CQ transport, trans-stimulation by injected solute (PfNT1)	Trans-stimulation data: total [3H]CQ transport, normalised to the oocyte type control (PfNT1)
O=CO [Formate]	100 ± 3.5 and 100 ± 1.8	2.8 ± 0.03 and 3.2 ± 0.08 and 2.5 ± 0.04	101 ± 7.3 and 99 ± 3.8 and 100 ± 4.4	2.4 ± 0.06 and 3.5 ± 0.07 and 3.3 ± 0.07	2.5 ± 0.09 and 3.2 ± 0.08	101 ± 3.9 and 99 ± 3.5	0.8 ± 0.01 and 0.8 ± 0.03	3.8 ± 0.01 and 3.8 ± 0.03	99 ± 3.7 and 99 ± 3.8	101 ± 2.9 and 101 ± 2.8	3.1 ± 0.08 and 2.3 ± 0.06	101 ± 3.6 and 100 ± 24
N[C@@H](CCC(=O)N[C@@H](CS)C(=O)NCC(=O)O)C(=O)O [Reduced glutathione (GSH)]	99 ± 4.6 and 99 ± 4.5 and 101 ± 2.2	2.8 ± 0.2 and 2.6 ± 0.08 and 3.2 ± 0.08	100 ± 5.5 and 101 ± 3.7 and 100 ± 4.7	2.7 ± 0.06 and 3.1 ± 0.08 and 3.3 ± 0.07	2.7 ± 0.05 and 2.9 ± 0.05	99 ± 4.9 and 101 ± 4.7	0.2 ± 0.03 and 0.2 ± 0.01	3.2 ± 0.03	96 ± 3.7 and 98 ± 3.9	98 ± 4.3 and 100 ± 3.8	3.8 ± 0.07 and 2.7 ± 0.06	98 ± 3.8 and 99 ± 4.4
